Data set [1] in a line: Selectivity index, ratio of CC50 for MDCK cells to EC50 for Influenza A virus PR/8/34 infected in MDCK cells. It counts as toxicity, cell-based. The settings on record: dog, read-out: Ratio CC50/EC50.
In data set [2] the test system is Influenza A virus. The experiment in a line: Antiviral activity against Influenza A virus PR/8/34 infected in MDCK cells incubated for 48 hrs by plaque reduction assay. As to conditions: Influenza A virus, PR/8/34, MDCK, 48 h. The format is functional, organism-based.
Data set [3] can be described thus: Inhibition of 6His-tagged Influenza virus PA (239 to 716 residues) extracted from Escherichia coli BL21(DE3)pLysS/GST-tagged Influenza virus PB1 (1 to 25 residues) by ELISA. More on the design: species or system unidentified influenza virus.
Data set [4] in a line: Cytotoxicity against MDCK cells incubated for 48 hrs by MTT assay. As to conditions: dog. It counts as toxicity, cell-based, Canis lupus familiaris.

pEC50, pIC50: −log10 of the molar value. A value given as a limit tells only on which side of the number the result lay.

For orientation: pEC50 means the negative decadic logarithm of the EC50, by convention in mol/L. High values mean a small EC50, low ones a large EC50. Broadly, the pIC50 is the negative decadic logarithm of the IC50, by convention in mol/L. Usually CC50 stands for the concentration at which the toxic effect on the cells reaches its halfway point. The low end stands for greater toxicity to the cells, the high end for lower toxicity to the cells. As for `O=C(Nc1sc2c(c1C(=O)Nc1ccccc1O)CCCCC2)c1ccc(Cl)s1`, the selectivity ratio in data set [1] stood at 79. The compound further had a pEC50 in data set [2] of 6.14. Besides, the pIC50 in data set [3] was less than 3.70. In addition, the CC50 at 48 h in data set [4] came to 57.7 µM.

For `N#Cc1ccc(C(=O)Nc2sc3c(c2C(=O)Nc2ccccn2)CCCCC3)cc1`, the selectivity ratio in data set [1] was 88. In data set [2], this compound had a pEC50 of 5.80. Moreover, the pIC50 in data set [3] is 3.99. The same compound had a CC50 at 48 h in data set [4] of 141 µM.

Regarding `O=C(Nc1sc2c(c1C(=O)Nc1nccs1)CCCCC2)c1ccc([N+](=O)[O-])cc1O`, the pIC50 in data set [3] was 4.44. The compound further showed a CC50 at 48 h in data set [4] of 64.5 µM.

On to `O=C(Nc1sc2c(c1C(=O)Nc1ccccn1)CCCCC2)c1ccc([N+](=O)[O-])cc1O`, for which, in data set [1], the selectivity ratio is 144. The compound also showed a pEC50 in data set [2] of 5.89. For the same compound, the pIC50 in data set [3] is 4.10. The compound further yielded a CC50 at 48 h in data set [4] of 188 µM.

With `O=C(Nc1sc2c(c1C(=O)Nc1ccccn1)CCCCC2)c1cccs1`, the pEC50 in data set [2] was 4.66. Also, the pIC50 in data set [3] is 4.03. For the same compound, in data set [4], the CC50 at 48 h amounted to 28 µM.

As for `O=C(Nc1sc2c(c1C(=O)Nc1ccc(C(F)(F)F)cc1)CCCCC2)c1ccc([N+](=O)[O-])cc1`, the selectivity ratio in data set [1] was greater than 250. The pEC50 in data set [2] is 6.18. This compound also had a negative-log IC50 (pIC50) in data set [3] of less than 3.70. Also, the CC50 at 48 h in data set [4] was greater than 250 µM.

As for `O=C(Nc1sc2c(c1C(=O)Nc1ccc(OC(F)(F)F)cc1)CCCCC2)c1ccc([N+](=O)[O-])cc1`, the selectivity ratio in data set [1] is greater than 54. This compound had a pEC50 in data set [2] of 5.34. For the same compound, the pIC50 in data set [3] was less than 3.70. In data set [4], this compound displayed a CC50 at 48 h greater than 250 µM.

Consider `O=C(Nc1sc2c(c1C(=O)Nc1nccs1)CCCCC2)c1ccc(Cl)s1`, for which the selectivity ratio in data set [1] is greater than 2940. For the same compound, the pEC50 in data set [2] was 7.07. The pIC50 in data set [3] was less than 3.70. Besides, the CC50 at 48 h in data set [4] was greater than 250 µM.

Consider `CSCC[C@H](N)C(=O)N[C@@H](CC(=O)O)C(=O)N[C@H](C(=O)N[C@@H](CC(N)=O)C(=O)N1CCC[C@H]1C(=O)N[C@H](C(=O)N[C@@H](CC(C)C)C(=O)N[C@@H](CC(C)C)C(=O)N[C@@H](Cc1ccccc1)C(=O)N[C@@H](CC(C)C)C(=O)N[C@@H](CCCCN)C(=O)N[C@H](C(=O)N1CCC[C@H]1C(=O)N[C@@H](C)C(=O)N[C@@H](CCC(N)=O)C(=O)N[C@@H](Cc1ccc(O)cc1)C(=O)NCC(=O)N[C@@H](CCCNC(=N)N)C(=O)N[C@@H](CCCCN)C(=O)N[C@@H](CCCCN)C(=O)N[C@@H](CCCNC(=N)N)C(=O)N[C@@H](CCCNC(=N)N)C(=O)N[C@@H](CCC(N)=O)C(=O)N[C@@H](CCCNC(=N)N)C(=O)N[C@@H](CCCNC(=N)N)C(=O)N[C@@H](CCCNC(=N)N)C(=O)N1CCC[C@H]1C(=O)N1CCC[C@H]1C(=O)O)C(C)C)[C@@H](C)O)C(C)C`, for which, in data set [1], the selectivity ratio is greater than 2. The same compound gave a negative-log EC50 (pEC50) in data set [2] of 4.39. This compound had a pIC50 in data set [3] of 4.46. Further, the CC50 at 48 h in data set [4] is greater than 100 µM.

With `N#Cc1ccc(C(=O)Nc2sc3c(c2C(=O)Nc2ccc(Cl)cc2)CCCCC3)cc1`, the selectivity ratio in data set [1] is greater than 368. This compound also gave a pEC50 in data set [2] of 6.17. The pIC50 in data set [3] is 3.84. In data set [4], this compound displayed a CC50 at 48 h greater than 250 µM.

Consider `O=C(Nc1sc2c(c1C(=O)Nc1ccccn1)CCCCC2)c1ccc(Cl)s1`, for which the selectivity ratio in data set [1] was greater than 250. In data set [2], this compound gave a pEC50 of 6.00. The same compound had a pIC50 in data set [3] of less than 3.70. The same compound returned a CC50 at 48 h in data set [4] greater than 250 µM.

As for `O=C(Nc1sc2c(c1C(=O)Nc1ccccc1O)CCCCC2)c1ccc([N+](=O)[O-])cc1`, in data set [1], the selectivity ratio came to 192. Also, in data set [2], the pEC50 was 6.42. Besides, the pIC50 in data set [3] is less than 3.70. The compound also yielded a CC50 at 48 h in data set [4] of 73 µM.

`O=C(Nc1sc2c(c1C(=O)Nc1nccs1)CCCCC2)c1ccc([N+](=O)[O-])cc1`: the selectivity ratio in data set [1] is greater than 1320. In data set [2], the pEC50 was 6.72. In addition, in data set [3], the negative-log IC50 (pIC50) is 3.90. The compound further displayed a cytotoxic concentration (CC50) at 48 h in data set [4] greater than 250 µM.

Consider `O=C(Nc1sc2c(c1C(=O)Nc1ccccc1O)CCCCC2)c1ccccc1O`, for which the selectivity ratio in data set [1] was determined as 143. This compound showed a pEC50 in data set [2] of 6.13. The same compound had a pIC50 in data set [3] of less than 3.70. The same compound returned a CC50 at 48 h in data set [4] of 106 µM.

For the compound `O=C(Nc1sc2c(c1C(=O)Nc1ccc(OC(F)F)cc1)CCCCC2)c1ccc([N+](=O)[O-])cc1`, the selectivity ratio in data set [1] is greater than 93. The same compound had a pEC50 in data set [2] of 5.57. Besides, in data set [3], the pIC50 was less than 3.70. In addition, the CC50 at 48 h in data set [4] is greater than 250 µM.

As to `O=C(Nc1sc2c(c1C(=O)Nc1ccc(Br)cc1)CCCCC2)c1ccc([N+](=O)[O-])cc1`, in data set [1], the selectivity ratio is greater than 78. Further, the pEC50 in data set [2] was 5.49. In addition, the pIC50 in data set [3] was less than 3.70. The same compound returned a CC50 at 48 h in data set [4] greater than 250 µM.

As to `O=C(Nc1sc2c(c1C(=O)Nc1ccc(Cl)cc1)CCCCC2)c1ccc([N+](=O)[O-])cc1`, the selectivity ratio in data set [1] was greater than 192. The pEC50 in data set [2] is 5.89. The compound further had a pIC50 in data set [3] of less than 3.70. In data set [4], this compound had a CC50 at 48 h greater than 250 µM.

`COc1ccc(NC(=O)c2c(NC(=O)c3ccc([N+](=O)[O-])cc3)sc3c2CCCCC3)cc1` showed a pEC50 in data set [2] of less than 4.00. The same compound showed a pIC50 in data set [3] of less than 3.70. In addition, the CC50 at 48 h in data set [4] was greater than 250 µM.

As for `O=C(Nc1sc2c(c1C(=O)Nc1ccccn1)CCCCC2)c1ccc(Br)cn1`, the pEC50 in data set [2] was less than 4.00. This compound had a pIC50 in data set [3] of 3.84. The compound further had a CC50 at 48 h in data set [4] greater than 250 µM.

For the compound `O=C(Nc1sc2c(c1C(=O)Nc1ccc(C(F)(F)F)cc1)CCCCC2)c1ccc(Cl)s1`, the selectivity ratio in data set [1] is greater than 74. The compound also gave a pEC50 in data set [2] of 5.89. The compound further showed a pIC50 in data set [3] of 3.95. The same compound came in with a CC50 at 48 h in data set [4] greater than 100 µM.

In the case of `O=C(Nc1sc2c(c1C(=O)Nc1ccccn1)CCCCC2)c1ccc2c(c1)COC2=O`, the selectivity ratio in data set [1] is greater than 6. This compound gave a pEC50 in data set [2] of 4.75. For the same compound, the pIC50 in data set [3] was 3.84. This compound also displayed a CC50 at 48 h in data set [4] greater than 100 µM.

The compound `O=C(Nc1sc2c(c1C(=O)Nc1ccccn1)CCCCC2)c1ccsc1` gave a pEC50 in data set [2] of 4.01. In data set [3], this compound gave a pIC50 of less than 3.70. In addition, in data set [4], the CC50 at 48 h is greater than 250 µM.

On to `O=C(Nc1sc2c(c1C(=O)Nc1ccccn1)CCCCC2)c1ccc(Br)cc1`, for which, in data set [2], the pEC50 was less than 4.00. The same compound had a pIC50 in data set [3] of 4.11. In data set [4], this compound showed a CC50 at 48 h greater than 250 µM.

With `O=C(Nc1sc2c(c1C(=O)Nc1ccc(C(F)(F)F)cc1)CCCCC2)c1ccccc1O`, the selectivity ratio in data set [1] is greater than 455. In data set [2], this compound had a pEC50 of 6.36. Further, in data set [3], the pIC50 is less than 3.70. The compound further came in with a CC50 at 48 h in data set [4] greater than 200 µM.

`O=C(Nc1sc2c(c1C(=O)Nc1ccc(Cl)cc1)CCCCC2)c1ccc([N+](=O)[O-])cc1O`: the pIC50 in data set [3] is 4.76. The CC50 at 48 h in data set [4] stood at 115 µM.

As for `O=C(Nc1sc2c(c1C(=O)Nc1ccc(Cl)cc1)CCCCC2)c1ccc(Cl)s1`, the selectivity ratio in data set [1] is greater than 4. Besides, the pEC50 in data set [2] was 4.21. The compound further had a pIC50 in data set [3] of less than 3.70. For the same compound, in data set [4], the CC50 at 48 h was greater than 250 µM.

For `N#Cc1ccc(C(=O)Nc2sc3c(c2C(=O)Nc2nccs2)CCCCC3)cc1`, in data set [3], the pIC50 is 4.20. The CC50 at 48 h in data set [4] is greater than 250 µM.

The compound `O=C(Nc1sc2c(c1C(=O)Nc1ccc(C(F)(F)F)cc1)CCCCC2)c1ccc([N+](=O)[O-])cc1O` showed a pIC50 in data set [3] of less than 3.70. For the same compound, in data set [4], the CC50 at 48 h is 10 µM.

Compound `O=C(Nc1sc2c(c1C(=O)Nc1ccccn1)CCCCC2)c1ccc2c(c1)OCCO2` showed a pEC50 in data set [2] of less than 4.00. This compound also had a pIC50 in data set [3] of less than 3.70. Besides, in data set [4], the CC50 at 48 h is greater than 250 µM.

Regarding `O=C(Nc1sc2c(c1C(=O)Nc1ccccn1)CCCCC2)c1ccc2nonc2c1`, the pEC50 in data set [2] is less than 4.98. Also, the pIC50 in data set [3] is 4.12. For the same compound, the CC50 at 48 h in data set [4] came out at 10.5 µM.

Values taken from ChEMBL document CHEMBL5614404, “Optimization of potent, broad-spectrum, and specific anti-influenza compounds targeting RNA polymerase PA-PB1 heterodimerization” (Eur J Med Chem, 2024).
